Source: patent US8501446B2 (Vertex Pharmaceuticals Incorporated, priority 2004, dated 2013)
pKi: −log10 of the molar value.

Tests used:
Assay type in all cases: biochemical
[1] = molecular target: T1, ROCK I (AA 6-553) (Homo sapiens, UniProt Q13464); test: ROCK inhibition assay, standard coupled enzyme system ("Enzyme"); settings: enzyme-linked assay
T1 construct: ROCK I (AA 6-553)
Summary of the method: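 ROCK I (AA 6-553) at 45 nM and 30 °C with 45 μM ATP and 200 μM peptide, in 100 mM HEPES pH 7.5, 10 mM MgCl2, 25 mM NaCl, 2 mM DTT, 1.5% DMSO. ADP output read by a PK/LDH coupled system: 2.5 mM PEP, 350 μM NADH, 30 μg/ml PK, 10 μg/ml LDH.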

[2] = molecular target: T2, full length Aurora-A (AA 1-403) (Homo sapiens, UniProt O14965); test: Aurora-A inhibition assay, standard coupled enzyme system; settings: average Ki if more than one value determined
T2 construct: full length Aurora-A (AA 1-403)
T2 sequence (O14965 1-403): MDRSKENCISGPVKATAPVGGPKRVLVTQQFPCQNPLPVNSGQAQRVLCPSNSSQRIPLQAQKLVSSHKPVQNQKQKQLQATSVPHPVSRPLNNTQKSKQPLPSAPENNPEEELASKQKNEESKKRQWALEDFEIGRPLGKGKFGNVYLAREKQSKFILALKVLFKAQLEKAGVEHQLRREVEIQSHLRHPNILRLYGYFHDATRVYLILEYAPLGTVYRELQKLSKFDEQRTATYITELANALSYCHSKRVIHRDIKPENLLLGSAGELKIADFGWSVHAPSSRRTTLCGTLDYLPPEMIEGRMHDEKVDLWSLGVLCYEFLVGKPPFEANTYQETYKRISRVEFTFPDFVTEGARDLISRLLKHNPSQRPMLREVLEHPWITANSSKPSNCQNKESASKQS

[3] = molecular target: T3, Aurora-C (Homo sapiens, UniProt Q9UQB9); test: Aurora-C inhibition assay, coupled enzyme system as for Aurora-A; settings: average Ki if more than one value determined
T3 sequence (Q9UQB9 1-309): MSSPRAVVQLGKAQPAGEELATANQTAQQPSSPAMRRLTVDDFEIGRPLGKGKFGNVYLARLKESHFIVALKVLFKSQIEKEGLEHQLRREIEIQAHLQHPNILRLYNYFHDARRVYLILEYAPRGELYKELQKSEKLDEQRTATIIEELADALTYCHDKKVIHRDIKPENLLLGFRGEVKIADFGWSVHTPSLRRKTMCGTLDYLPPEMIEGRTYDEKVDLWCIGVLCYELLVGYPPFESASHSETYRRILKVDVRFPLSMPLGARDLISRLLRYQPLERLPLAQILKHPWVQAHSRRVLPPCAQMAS
Method: Compounds were screened for their ability to inhibit full length Aurora-A (AA 1-403) activity using a standard coupled enzyme system (Fox et al., Protein Sci. 7, pp. 2249 (1998)). Reactions were carried out in a solution containing 100 mM HEPES (pH 7.5), 10 mM MgCl2, 25 mM NaCl, 300 μM NADH, 1 mM DTT and 3% DMSO. Final substrate concentrations in the assay were 200 μM ATP (Sigma Chemicals, St Louis, Mo.) and 800 μM peptide (LRRASLG, American Peptide, Sunnyvale, Calif.). Reactions were carried out at 30° C. and 35 nM Aurora-A. Final concentrations of the components of the coupled enzyme system were 2.5 mM phosphoenolpyruvate, 200 μM NADH, 60 μg/ml pyruvate kinase and 20 μg/ml lactate dehydrogenase.
An assay stock buffer solution was prepared containing all of the reagents listed above with the exception of ATP and the test compound of interest. The assay stock buffer solution (60 μl) was incubated in a 96 well plate with 2 μl of the test compound of interest at final concentrations spanning 0.002 μM to 30 μM at 30° C. for 10 min. Typically, a 12 point titration was conducted by preparing serial dilutions (from 1 mM compound stocks) with DMSO of the test compounds in daughter plates. The reaction was initiated by the addition of 5 μl of ATP (final concentration 200 μM). Rates of reaction were obtained using a Molecular Devices Spectramax plate reader (Sunnyvale, Calif.) over 10 min at 30° C. The Ki values were determined from the rate data as a function of inhibitor concentration using computerized nonlinear regression (Prism 3.0, Graphpad Software, San Diego, Calif.). Aurora-C activity was screened in a similar manner using Aurora-C protein. Aurora-B activity was screened using a radioactive assay, such as described in Examples 1 and 2, but using Aurora-B protein.

[4] = molecular target: Aurora-B (Homo sapiens, UniProt Q96GD4); test: Aurora-B inhibition assay, radioactive assay; settings: average Ki if more than one value determined
Summary of the method: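 Aurora-B protein substituted into the standard radioactive kinase format: reaction quenched with TCA, product captured on glass fiber filters and 33P counted. Ki(app) derived by fitting background-corrected counts against inhibitor concentration.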

T1 sequence (Q13464 6-553, species assumed): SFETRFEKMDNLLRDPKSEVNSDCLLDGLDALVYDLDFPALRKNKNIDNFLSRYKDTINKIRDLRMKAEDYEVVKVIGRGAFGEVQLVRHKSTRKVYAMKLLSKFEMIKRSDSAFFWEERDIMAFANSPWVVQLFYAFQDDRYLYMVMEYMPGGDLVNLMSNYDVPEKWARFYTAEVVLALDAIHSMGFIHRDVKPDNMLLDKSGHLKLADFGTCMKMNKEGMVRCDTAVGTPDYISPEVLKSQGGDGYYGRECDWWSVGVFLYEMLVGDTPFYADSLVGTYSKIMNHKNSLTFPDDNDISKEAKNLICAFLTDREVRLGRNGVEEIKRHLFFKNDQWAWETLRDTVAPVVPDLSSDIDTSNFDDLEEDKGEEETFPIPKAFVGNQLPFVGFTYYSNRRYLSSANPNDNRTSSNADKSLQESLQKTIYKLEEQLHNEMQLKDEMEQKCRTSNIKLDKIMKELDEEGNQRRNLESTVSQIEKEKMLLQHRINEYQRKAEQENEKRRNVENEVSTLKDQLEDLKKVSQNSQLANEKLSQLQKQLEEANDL
Chain of Aurora-B (Q96GD4 whole entry): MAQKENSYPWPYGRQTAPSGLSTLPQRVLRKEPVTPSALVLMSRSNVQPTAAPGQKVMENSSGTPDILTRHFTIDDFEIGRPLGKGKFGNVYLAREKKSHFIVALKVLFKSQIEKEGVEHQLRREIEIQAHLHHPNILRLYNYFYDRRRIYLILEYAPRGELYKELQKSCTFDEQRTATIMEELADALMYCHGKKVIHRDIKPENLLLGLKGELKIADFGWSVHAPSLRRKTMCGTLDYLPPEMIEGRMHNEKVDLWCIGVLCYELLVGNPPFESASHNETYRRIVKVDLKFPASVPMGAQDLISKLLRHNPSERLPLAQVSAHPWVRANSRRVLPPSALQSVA

| pKi [1] | pKi [2] | pKi [3] | pKi [4] | SMILES |
| --- | --- | --- | --- | --- |
| 5.30 to 6.30 | > 6.30 | > 6.30 | 5.30 to 6.30 | Clc1ccc(CNc2cccc(-c3c[nH]c4ncc(Cl)cc34)n2)cc1 [Compound 242] |
| 5.30 to 6.30 | > 6.30 | > 6.30 | > 6.30 | C[C@H](Nc1nc(-c2c[nH]c3ncc(Cl)cc23)ncc1F)c1ccc(F)cc1 [Compound 285] |
| 5.30 to 6.30 | > 6.30 | > 6.30 | > 6.30 | C[C@H](Nc1nc(-c2c[nH]c3ncc(Cl)cc23)ncc1F)c1cccc(O)c1 [Compound 306] |
| 5.30 to 6.30 | > 6.30 | > 6.30 | > 6.30 | Fc1cnc(-c2c[nH]c3ncc(Cl)cc23)nc1NCc1cccc(Cl)c1 [Compound 312] |
| 5.30 to 6.30 | > 6.30 | > 6.30 | > 6.30 | Fc1cnc(-c2c[nH]c3ncc(Cl)cc23)nc1NCc1ccccn1 [Compound 316] |
| 5.30 to 6.30 | > 6.30 | > 6.30 | > 6.30 | Fc1cnc(-c2c[nH]c3ncc(Cl)cc23)nc1NCc1cccnc1 [Compound 317] |
| 5.30 to 6.30 | > 6.30 | > 6.30 | 5.30 to 6.30 | C[C@H](Nc1nc(-c2c[nH]c3ncc(Cl)cc23)ncc1F)c1cccc(O[C@H]2CCNC2)c1 [Compound 321] |
| 5.30 to 6.30 | > 6.30 | > 6.30 | > 6.30 | Fc1cnc(-c2c[nH]c3ncc(Cl)cc23)nc1NCC1CCCCN1 (stereo not drawn) [Compound 325] |
| > 6.30 | > 6.30 | > 6.30 | > 6.30 | Fc1cnc(-c2c[nH]c3ncc(Cl)cc23)nc1NCC1CCNCC1 [Compound 327] |
| 5.30 to 6.30 | > 6.30 | > 6.30 | > 6.30 | Fc1cnc(-c2c[nH]c3ncc(Cl)cc23)nc1NCC1CCCN1 (stereo not drawn) [Compound 328] |
| > 6.30 | > 6.30 | > 6.30 | > 6.30 | Fc1cnc(-c2c[nH]c3ncc(Cl)cc23)nc1NCC1CCNC1 (stereo not drawn) [Compound 329] |
| 5.30 to 6.30 | > 6.30 | > 6.30 | > 6.30 | C[C@H](Nc1nc(-c2c[nH]c3ncc(Cl)cc23)ncc1F)c1cccc(N)c1 [Compound 333] |

The remaining lines, values behind:

| SMILES | pKi [1] | pKi [2] | pKi [3] | pKi [4] |
| --- | --- | --- | --- | --- |
| Clc1cnc2[nH]cc(-c3cccc(NC4CCCCC4)n3)c2c1 [Compound 290] | 5.30 to 6.30 | > 6.30 | 5.30 to 6.30 | 5.30 to 6.30 |
| C[C@H](Nc1cc(C(=O)O)nc(-c2c[nH]c3ncc(Cl)cc23)n1)c1ccc(F)cc1 [Compound 323] | 5.30 to 6.30 | > 6.30 | > 6.30 | > 6.30 |
| Cc1cc(N[C@@H](C)c2ccc(F)cc2)nc(-c2c[nH]c3ncc(Cl)cc23)n1 [Compound 324] | 5.30 to 6.30 | > 6.30 | > 6.30 | > 6.30 |
| Fc1cnc(-c2c[nH]c3ncc(Cl)cc23)nc1NCC1CCCNC1 (stereo not drawn) [Compound 326] | > 6.30 | > 6.30 | > 6.30 | > 6.30 |
| C[C@H](Nc1cc(CO)nc(-c2c[nH]c3ncc(Cl)cc23)n1)c1ccc(F)cc1 [Compound 339] | 5.30 to 6.30 | > 6.30 | > 6.30 | > 6.30 |
| CNC(=O)[C@H](C)Nc1nc(-c2c[nH]c3ncc(Cl)cc23)ncc1F [Compound 340] | 5.30 to 6.30 | > 6.30 | > 6.30 | > 6.30 |
| Fc1cnc(-c2c[nH]c3ncc(Cl)cc23)nc1NC1CCNCC1 [Compound 345] | > 6.30 | > 6.30 | 5.30 to 6.30 | 5.30 to 6.30 |
| Fc1cnc(-c2c[nH]c3ncc(Cl)cc23)nc1NC1CCCNC1 (stereo not drawn) [Compound 347] | > 6.30 | > 6.30 | 5.30 to 6.30 | 5.30 to 6.30 |
| Fc1cnc(-c2c[nH]c3ncc(Cl)cc23)nc1NC1CCOCC1 [Compound 348] | 5.30 to 6.30 | > 6.30 | > 6.30 | > 6.30 |
